# Source: US20050124618A1, “Methods of modulating angiogenesis and cancer cell proliferation” (priority 2003, published 2005)
# “Also recorded” adds a separate entry of the source.
# Columns and labels:
# [1] = test system: extensor digitorum longus (EDL) and tibialis anterior (TA) muscles; test: Vessel density of EDL and TA muscles after 7 days of electrical stimulation; format: in vivo, rat
# Description: Experimental protocols and tissue preparation: After a 24-h recovery period, the implanted stimulator was activated by momentary closure of the magnetic reed switch using a small hand-held magnet. […] Contractions of the extensor digitorum longus (EDL) and tibialis anterior (TA) muscles were automatically initiated at 9 AM each day and sustained for 8 h/day over a consecutive 7-day period. At the end of the stimulation period, the animals were euthanized by an overdose of pentobarbital sodium (100 mg/kg ip), and the EDL and TA muscles were harvested for analysis as previously described (Greene A S et al., Hypertension 15: 779-783, 1990; and Parmentier J H et al., Hypertension 37: 623-629, 2001).
# Tissue harvest and morphological analysis of vessel density: The stimulated and contralateral muscles were removed, weighed, and rinsed in physiological salt solution. A 300-mg sample was taken from the rostral portion of the TA muscle and frozen in liquid nitrogen for Western blot (100 mg) and HPLC (200 mg) analysis for measurement of VEGF protein expression and 20-HETE formation, respectively. The remaining TA and EDL muscles were lightly fixed in a 0.25% formalin solution overnight. The muscles were sectioned via a manual microtome to a thickness of about 100 μm by securing the tendons and slicing parallel to the longitudinal orientation of the muscle fibers. From every animal, two slices of each EDL muscle and three slices of each TA muscle were made. The slices were than immersed for 2 h in a solution of 25 μg/ml rhodamine-labeled Griffonia simplicifolia I (GS-I) lectin (Sigma; St. Louis, Mo. (Greene A S et al., Hypertension 15: 779-783, 1990)). Immediately after this 2-h exposure to GS-I lectin, the muscles were rinsed in physiological solution. The rinsing procedure was repeated after 15 and 30 min, and the muscles were rinsed in physiological saline solution for 12 h (overnight, at 4° C.). On the next day, the slices were mounted on microscope slides with a water-soluble mounting medium consisting of toluene and acrylic resin (SP ACCU-MOUNT 280, Baxter Scientific).
# The labeled sections were visualized using a video fluorescent microscope system (Olympus ULWD CD Plan, ×20 objective, 1.6 cm working distance and 0.4 numerical aperture) with epi-illumination, as previously described (Parmentier J H et al., Hypertension 37: 623-629, 2001). In the present study, 10-15 and 20-25 representative fields were selected for study from each EDL and TA muscle slice, respectively. Each field was converted to a digitized image (DT2801 Data Translation; Marlboro, Mass.) and stored as an 8-bit/pixel image file with a resolution of 512×512 pixels. Morphometric analysis of the scanned histochemical sections was done as previously described (Parmentier J H et al., Hypertension 37: 623-629, 2001).
# Data analysis and statistics: For each muscle, the vessel counts of all the selected fields (10-15 scans×2 slices for each EDL muscle; 20-25 scans×3 slices for each TA muscle) were averaged to a single vessel density. Vessel density was expressed in terms of the mean number of vessel-grid intersections per microscope field (0.224 mm^2). For each experimental group, the measured vessel density and 20-HETE formation of the stimulated muscle was compared with its unstimulated counterpart as well as with age-matched controls. All values are presented as means±SE. The significance of differences in values measured in the same animal was evaluated using a two-factor ANOVA (drug×stimulation) with repeated measures on one factor (stimulation). Significant differences were further investigated using a post hoc test (Tukey's).
# HUVECs = HUVECs proliferation assay (CellTiter96 AQueous One); format: cell-based, human
# Description: HUVECs were seeded onto a 96-well plate at 1×10^4 cells/well. […] Organic solvent concentration never exceeded 0.1% of total culture volume. […] 20 μl of Aqueous One reagent was added to the 100 μl medium in each well. The plates were incubated for 2 hours at 37° C. in a humidified incubator. Absorbance was recorded at 490 nm using a 96-well Bio Kinetics Reader EL340 (Bio-TEK, Winooski, Vt.). The data represent changes in percent absorbance of treated cultures compared with control cells. Three different experiments were carried out, and each point was determined in triplicate.
# p42/p44 MAPK = test: Western blot of phospho-p42/p44 MAPK in U251 cells; format: cell-based, human; conditions: 10 μM HET0016, 24 and 48 hr
# Description: They were then pelleted by centrifugation at 1,000 g for 5 min at 4° C. Cells were lysed by adding RIPA buffer [20 mM HEPES (pH 7.4), 100 mM NaCl, 1% Nonidet P-40, 0.1% SDS, 1% deoxycholic acid, 10% glycerol, 1 mM EDTA, 1 mM NaVO3, 50 mM NaF, and Protease Inhibitors Set 1 (Calbiochem, La Jolla, Calif.)]. Plates were then scraped and cells collected in a 1.5-ml centrifuge tube, followed by incubation on ice for 30 min. Homogenates of the cell suspension were centrifuged for 10 min at 14,000 g and 4° C.; the pellets were discarded and protein concentrations in the supernatant determined by bicinchoninic acid (BCA) protein assay.
# Typically, 20 μg of protein was separated on a 14% Tris-glycine gel (Invitrogen) and electroblotted on a PVDF membrane (Biotrace, Bothell, Wash.). Membranes were blocked for 1 h at room temperature with blocking buffer [0.2% I-Block reagent (Tropix, Bedford, Mass.), 0.1% Tween-20 in […]] before incubation with primary antibodies in blocking buffer (overnight at 4° C.). […] Both phospho-tyrosine (Y102) and phospho-serine/threonine-Pro MPM2 were detected using a 1:2000 dilution of the corresponding antibodies, whereas phospho-p44/p42MAPK and phospho-SAPK/JNK were detected using 1:1000 antibody dilutions. […]
# [2] = chronic treatment, 7 days electrical stimulation
structure (smiles),measurement,setting,value
"CCCCc1ccc(N=CNO)c(C)c1 [HET0016, N-hydroxy-N′-(4-butyl-2 methylphenyl) formamidine]",effect on the increase in vessel density (angiogenesis) induced by electrical stimulation,"[1]; 7 days, HET0016 2 mg kg−1 day−1, ABT 50 mg kg−1 day−1",completely blocked
same,"vessel density, EDL, unstimulated side","[1]; chronic treatment, 7 days",116.0±1.0 number of vessel intersections
same,"vessel density, TA, unstimulated side","[1]; chronic treatment, 7 days",105.7±4.9 number of vessel intersections
same,"vessel density, EDL, stimulated side",[1]; [2],118.0±10.1 number of vessel intersections
same,"vessel density, TA, stimulated side",[1]; [2],110.5±1.1 number of vessel intersections
same,effect on the proliferative response of HUVECs to VEGF,"HUVECs; 250 ng/ml VEGF + 10 μM HET0016, 24 hours",abolished; also recorded: blocked the known proliferative response to VEGF; also recorded: blocks the mitogenic activity of VEGF
same,effect on basal proliferation rate of HUVECs,HUVECs; 10 μM HET0016,did not alter basal proliferation rate
same,phosphorylation of p42/p44 MAPK,p42/p44 MAPK,specifically inhibited phosphorylation
